# Measurements published in patent US9670212B2, “Inhibitors of PI3K-delta and methods of their use and manufacture” (Exelixis, Inc., priority 2010, dated 2017).
# Target: PI3K delta (Homo sapiens (Human), UniProt O00329)
# Assay: Luciferase-coupled chemiluminescence kinase assay (KinaseGlo, ATP consumption)
# Assay type: biochemical
# Procedure: Kinase activity and compound inhibition were investigated using one or more of the assay formats described below. The ATP concentrations used in the various assays were approximately equal to or less than the KM for each of the respective kinases. Dose-response experiments were performed using an intra-plate dilution scheme with 10 different inhibitor concentrations in a 384-well microtiter plate. […] Typically N should approximate unity. Curve fitting was performed using XLFit or ActivityBase. Luciferase-Coupled Chemiluminescence Assay Protocol
# Kinase activity is measured as the percent of ATP consumed following the kinase reaction using luciferase-luciferin-coupled chemiluminescence. […] Kinase reactions were initiated by combining test compounds, kinase, and ATP in a 20 μL volume (6 μL volume for 1536-well plate). The reaction mixture was incubated at ambient temperature for 2 h. Following the kinase reaction, a 20 μL (or 3 μL for 1536-well plate) aliquot of KinaseGlo (Promega) was added and the chemiluminescence signal measured using an EnVision plate reader (Perkin Elmer).
# Sequence of PI3K delta (O00329 whole entry): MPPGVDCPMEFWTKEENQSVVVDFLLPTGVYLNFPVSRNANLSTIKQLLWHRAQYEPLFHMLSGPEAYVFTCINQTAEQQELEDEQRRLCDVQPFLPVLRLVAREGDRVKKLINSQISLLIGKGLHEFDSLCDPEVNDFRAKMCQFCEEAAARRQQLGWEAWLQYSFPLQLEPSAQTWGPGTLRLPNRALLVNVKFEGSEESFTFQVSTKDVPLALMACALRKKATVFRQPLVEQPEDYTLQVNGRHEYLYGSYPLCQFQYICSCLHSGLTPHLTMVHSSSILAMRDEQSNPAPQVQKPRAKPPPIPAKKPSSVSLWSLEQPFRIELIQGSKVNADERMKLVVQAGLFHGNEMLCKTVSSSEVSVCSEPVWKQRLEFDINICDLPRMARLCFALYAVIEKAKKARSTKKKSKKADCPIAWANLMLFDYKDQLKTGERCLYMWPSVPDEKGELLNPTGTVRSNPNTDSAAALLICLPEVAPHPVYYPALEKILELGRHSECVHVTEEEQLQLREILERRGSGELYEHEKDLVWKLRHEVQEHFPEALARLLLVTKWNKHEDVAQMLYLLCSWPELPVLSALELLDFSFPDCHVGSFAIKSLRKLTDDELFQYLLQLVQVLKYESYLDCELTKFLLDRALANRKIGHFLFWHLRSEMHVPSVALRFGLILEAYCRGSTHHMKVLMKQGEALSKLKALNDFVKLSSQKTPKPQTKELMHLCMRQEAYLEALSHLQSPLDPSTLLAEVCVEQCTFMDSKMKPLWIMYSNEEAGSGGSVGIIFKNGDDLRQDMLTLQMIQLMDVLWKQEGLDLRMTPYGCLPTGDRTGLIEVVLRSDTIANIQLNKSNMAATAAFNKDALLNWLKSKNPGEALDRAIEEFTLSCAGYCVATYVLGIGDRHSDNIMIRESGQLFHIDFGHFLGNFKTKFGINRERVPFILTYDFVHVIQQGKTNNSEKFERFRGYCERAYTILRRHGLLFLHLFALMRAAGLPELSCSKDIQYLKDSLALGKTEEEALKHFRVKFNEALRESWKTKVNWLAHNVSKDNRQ
# Sequence of PI3K delta (P27986 whole entry partner): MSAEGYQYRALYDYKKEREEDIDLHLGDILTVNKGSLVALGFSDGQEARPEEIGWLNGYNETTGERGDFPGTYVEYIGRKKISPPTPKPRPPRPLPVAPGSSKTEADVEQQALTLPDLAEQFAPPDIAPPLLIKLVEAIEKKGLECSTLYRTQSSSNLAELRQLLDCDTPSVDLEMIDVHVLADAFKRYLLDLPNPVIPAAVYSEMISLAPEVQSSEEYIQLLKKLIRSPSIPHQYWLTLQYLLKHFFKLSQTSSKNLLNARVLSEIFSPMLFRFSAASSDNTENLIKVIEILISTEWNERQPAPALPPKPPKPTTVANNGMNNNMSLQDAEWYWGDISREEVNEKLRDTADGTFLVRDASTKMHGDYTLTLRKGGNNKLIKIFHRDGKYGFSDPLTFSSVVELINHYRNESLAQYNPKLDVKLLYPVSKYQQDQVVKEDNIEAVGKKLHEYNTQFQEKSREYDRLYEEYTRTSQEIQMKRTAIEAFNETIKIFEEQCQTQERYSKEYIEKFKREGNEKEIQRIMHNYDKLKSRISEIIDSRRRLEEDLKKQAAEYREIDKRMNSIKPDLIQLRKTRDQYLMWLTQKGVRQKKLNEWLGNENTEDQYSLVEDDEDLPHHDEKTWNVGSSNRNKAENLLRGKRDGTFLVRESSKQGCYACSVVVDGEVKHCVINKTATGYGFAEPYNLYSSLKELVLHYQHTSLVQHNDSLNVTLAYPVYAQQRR
row,Compound,IC50
1,"Cc1cccc2cc(CNC(=O)c3nccnc3N)c(N(C)CCN(C)C(=O)c3ccncc3)nc12 [Compound 79, 3-amino-N-{[8-methyl-2-(methyl{2-[methyl(pyridin-4-ylcarbonyl)amino]ethyl}amino)quinolin-3-yl]methyl}pyrazine-2-carboxamide]",50 to 250 nM
2,"Cc1cccc2cc(CNC(=O)c3nccnc3N)c(N(C)CCN(C)C(=O)c3cccnc3)nc12 [Compound 80, 3-amino-N-{[8-methyl-2-(methyl{2-[methyl(pyridin-3-ylcarbonyl)amino]ethyl}amino)quinolin-3-yl]methyl}pyrazine-2-carboxamide]",250 to 500 nM
3,"Cc1cccc2cc(CNC(=O)c3nccnc3N)c(N(C)CCN(C)C(=O)c3ccccn3)nc12 [Compound 81, 3-amino-N-{[8-methyl-2-(methyl{2-[methyl(pyridin-2-ylcarbonyl)amino]ethyl}amino)quinolin-3-yl]methyl}pyrazine-2-carboxamide]",250 to 500 nM
4,"Cc1cccc2cc(CNC(=O)c3nccnc3N)c(N(C)CCN(C)Cc3cccnc3)nc12 [Compound 83, 3-amino-N-{[8-methyl-2-(methyl{2-[methyl(pyridin-3-ylmethyl)amino]ethyl}amino)quinolin-3-yl]methyl}pyrazine-2-carboxamide]",< 50 nM
5,"Cc1cccc2cc(CNC(=O)c3nccnc3N)c(N(C)CCN(C)CC#N)nc12 [Compound 84, 3-amino-N-({2-[{2-[(cyanomethyl)(methyl)amino]ethyl}(methyl)amino]-8-methylquinolin-3-yl}methyl)pyrazine-2-carboxamide]",50 to 250 nM
6,"Cc1cccc2cc(CNC(=O)c3nccnc3N)c(N(C)CCN(C)C(=O)Cn3ccnc3)nc12 [Compound 85, 3-amino-N-({2-[{2-[(1H-imidazol-1-ylacetyl)(methyl)amino]ethyl}(methyl)amino]-8-methylquinolin-3-yl}methyl)pyrazine-2-carboxamide]",< 50 nM
7,"Cc1cccc2cc(CNC(=O)c3nccnc3N)c(N(C)CCN(C)C(=O)Cn3ccnc3C)nc12 [Compound 86, 3-amino-N-({8-methyl-2-[methyl(2-{methyl[(2-methyl-1H-imidazol-1-yl)acetyl]amino}ethyl)amino]quinolin-3-yl}methyl)pyrazine-2-carboxamide]",< 50 nM
8,"Cc1cccc2cc(CNC(=O)c3nccnc3N)c(N(C)Cc3cccnc3)nc12 [Compound 87, 3-amino-N-({8-methyl-2-[methyl(pyridin-3-ylmethyl)amino]quinolin-3-yl}methyl)pyrazine-2-carboxamide]",50 to 250 nM
9,"Cc1cccc2cc(CNC(=O)c3nccnc3N)c(N(C)CCc3ccccn3)nc12 [Compound 88, 3-amino-N-({8-methyl-2-[methyl(2-pyridin-2-ylethyl)amino]quinolin-3-yl}methyl)pyrazine-2-carboxamide]",500 to 1500 nM
10,"Cc1cccc2cc(CNC(=O)c3nccnc3N)c(N(C)CCN(C)CC(=O)N(C)C)nc12 [Compound 89, 3-amino-N-({2-[(2-{[2-(dimethylamino)-2-oxoethyl](methyl)amino}ethyl)(methyl)amino]-8-methylquinolin-3-yl}methyl)pyrazine-2-carboxamide]",< 50 nM
11,"Cc1cccc2cc(CNC(=O)c3nccnc3N)c(N(C)CCN(C)c3cnccn3)nc12 [Compound 90, 3-amino-N-{[8-methyl-2-(methyl{2-[methyl(pyrazin-2-yl)amino]ethyl}amino)quinolin-3-yl]methyl}pyrazine-2-carboxamide]",500 to 1500 nM
12,"Nc1nccnc1C(=O)NCc1nc2ccccc2cc1-c1cscn1 [Compound 91, 3-amino-N-{[3-(1,3-thiazol-4-yl)quinolin-2-yl]methyl}pyrazine-2-carboxamide]",500 to 1500 nM
13,"CN(C)Cc1ccccc1-c1cc2ccccc2nc1CNC(=O)c1nccnc1N [Compound 92, 3-amino-N-[(3-{2-[(dimethylamino)methyl]phenyl}quinolin-2-yl)methyl]pyrazine-2-carboxamide]",50 to 250 nM
14,"Nc1nccnc1C(=O)NCc1nc2ccccc2cc1Br [Compound 93, 3-amino-N-[(3-bromoquinolin-2-yl)methyl]pyrazine-2-carboxamide]",500 to 1500 nM
15,"Cc1cccc2cc(CNC(=O)c3nccnc3N)c(N(C)CCN(C)C(=O)Cn3nccn3)nc12 [Compound 94, 3-amino-N-{[8-methyl-2-(methyl{2-[methyl(2H-1,2,3-triazol-2-ylacetyl)amino]ethyl}amino)quinolin-3-yl]methyl}pyrazine-2-carboxamide]",50 to 250 nM
16,"Cc1cccc2cc(CNC(=O)c3nccnc3N)c(NCc3cccnc3)nc12 [Compound 95, 3-amino-N-({8-methyl-2-[(pyridin-3-ylmethyl)amino]quinolin-3-yl}methyl)pyrazine-2-carboxamide]",500 to 1500 nM
17,"Cc1cccc2cc(CNC(=O)c3nccnc3N)c(NCCc3ccccn3)nc12 [Compound 96, 3-amino-N-({8-methyl-2-[(2-pyridin-2-ylethyl)amino]quinolin-3-yl}methyl)pyrazine-2-carboxamide]",500 to 1500 nM

row,Compound,IC50
1,"Cc1cccc2cc(CNC(=O)c3nccnc3N)c(NCCc3cccnc3)nc12 [Compound 97, 3-amino-N-({8-methyl-2-[(2-pyridin-3-ylethyl)amino]quinolin-3-yl}methyl)pyrazine-2-carboxamide]",500 to 1500 nM
2,"Cc1cccc2cc(CNC(=O)c3nccnc3N)c(N(C)C3CCN(C)C3)nc12 (stereo not drawn) [Compound 98, 3-amino-N-({8-methyl-2-[methyl(1-methylpyrrolidin-3-yl)amino]quinolin-3-yl}methyl)pyrazine-2-carboxamide]",50 to 250 nM
3,"Cc1cccc2cc(CNC(=O)c3nccnc3N)c(N(C)C3CCN(C)CC3)nc12 [Compound 99, 3-amino-N-({8-methyl-2-[methyl(1-methylpiperidin-4-yl)amino]quinolin-3-yl}methyl)pyrazine-2-carboxamide]",50 to 250 nM
4,"Cc1cccc2cc(CNC(=O)c3nccnc3N)c(N(C)CCN(C)C(=O)Cn3ccnn3)nc12 [Compound 100, 3-amino-N-{[8-methyl-2-(methyl{2-[methyl(1H-1,2,3-triazol-1-ylacetyl)amino]ethyl}amino)quinolin-3-yl]methyl}pyrazine-2-carboxamide]",< 50 nM
5,"Cc1cccc2cc(CNC(=O)c3nccnc3N)c(N(C)CCN(C)S(C)(=O)=O)nc12 [Compound 101, 3-amino-N-{[8-methyl-2-(methyl{2-[methyl(methylsulfonyl)amino]ethyl}amino)quinolin-3-yl]methyl}pyrazine-2-carboxamide]",50 to 250 nM
6,"Cc1cccc2cc(CNC(=O)c3nccnc3N)c(N(C)CCN(C)C(=O)[C@H]3CCCN3)nc12 [Compound 102, 3-amino-N-{[8-methyl-2-(methyl{2-[methyl(D-prolyl)amino]ethyl}amino)quinolin-3-yl]methyl}pyrazine-2-carboxamide]",50 to 250 nM
7,"COCCN(C)c1nc2c(C)cccc2cc1CNC(=O)c1nccnc1N [Compound 104, 3-amino-N-[(8-methyl-2-{methyl[2-(methyloxy)ethyl]amino}quinolin-3-yl)methyl]pyrazine-2-carboxamide]",500 to 1500 nM
8,"Cc1ccccc1-c1cc2ccccc2nc1CNC(=O)c1ncc(N2CCOCC2)nc1N [Compound 105, 3-amino-N-{[3-(2-methylphenyl)quinolin-2-yl]methyl}-5-morpholin-4-ylpyrazine-2-carboxamide]",500 to 1500 nM
9,"Cc1ccccc1-c1cc2ccccc2nc1CNC(=O)c1ncc(Cl)nc1N [Compound 107, 3-amino-5-chloro-N-{[3-(2-methylphenyl)quinolin-2-yl]methyl}pyrazine-2-carboxamide]",500 to 1500 nM
10,"Cc1ccccc1-c1cc2ccccc2nc1CNC(=O)c1cncnc1N [Compound 108, 4-amino-N-{[3-(2-methylphenyl)quinolin-2-yl]methyl}pyrimidine-5-carboxamide]",500 to 1500 nM
11,"Cc1cccc2cc(CNC(=O)c3nccnc3N)c(N(C)CCN(C)C(=O)CN3CCCC3)nc12 [Compound 109, 3-amino-N-{[8-methyl-2-(methyl{2-[methyl(pyrrolidin-1-ylacetyl)amino]ethyl}amino)quinolin-3-yl]methyl}pyrazine-2-carboxamide]",50 to 250 nM
12,"Cc1cccc2cc(CNC(=O)c3nccnc3N)c(N(C)CCN(C)C(=O)c3cncn3C)nc12 [Compound 110, 3-amino-N-({8-methyl-2-[methyl(2-{methyl[(1-methyl-1H-imidazol-5-yl)carbonyl]amino}ethyl)amino]quinolin-3-yl}methyl)pyrazine-2-carboxamide]",50 to 250 nM
13,"Cc1cccc2cc(CNC(=O)c3nccnc3N)c(-n3ccnc3)nc12 [Compound 111, 3-amino-N-{[2-(1H-imidazol-1-yl)-8-methylquinolin-3-yl]methyl}pyrazine-2-carboxamide]",250 to 500 nM
14,"Cc1cccc2cc(CNC(=O)c3nccnc3N)c(-n3cnc4ccccc43)nc12 [Compound 112, 3-amino-N-{[2-(1H-benzimidazol-1-yl)-8-methylquinolin-3-yl]methyl}pyrazine-2-carboxamide]",500 to 1500 nM
15,"Cc1cccc2cc(CNC(=O)c3nccnc3N)c(N(C)CCN(C)C(=O)[C@@H]3CCCN3C)nc12 [Compound 113, 3-amino-N-{[8-methyl-2-(methyl{2-[methyl(1-methyl-L-prolyl)amino]ethyl}amino)quinolin-3-yl]methyl}pyrazine-2-carboxamide]",50 to 250 nM
16,"Cc1cccc2cc(CNC(=O)c3nccnc3N)c(N(C)CCN(C)C(=O)CN(C)C)nc12 [Compound 114, 3-amino-N-({2-[{2-[(N,N-dimethylglycyl)(methyl)amino]ethyl}(methyl)amino]-8-methylquinolin-3-yl}methyl)pyrazine-2-carboxamide]",50 to 250 nM
